# Reference: ChEMBL document CHEMBL1135808, “A new type of mixed anhydride and its applications to the synthesis of 7-substituted 8-chloro-5,5-dioxoimidazo[1,2-b][1,4,2]benzodithiazines with in vitro antitumor activity” (2002)
# How the values were obtained:
# [1] = test system: BT-549; test: In vitro total growth inhibition against breast cancer BT 549 cell line was reported.; assay type: functional; details: Homo sapiens, read-out: Log TGI (converted)
# [2] = test system: MDA-MB-231; test: In vitro total growth inhibition against breast cancer MDA-MB-231/ATCC cell lines was reported.; assay type: functional; details: Homo sapiens, read-out: Log TGI (converted)
# [3] = test system: SNB-19; test: Log of molar concentration leading to 50% cell death against CNS cancer SNB-19 cell line was reported; assay type: functional; details: Homo sapiens, read-out: Log LC50 (the source's name) (converted)
# [4] = test system: SNB-19; test: In vitro total growth inhibition against CNS cancer SNB-19 cell lines was reported.; assay type: functional; details: Homo sapiens, read-out: Log TGI (converted)
# [5] = test system: SNB-75; test: In vitro growth inhibition against CNS cancer SNB-75 cell line was reported.; assay type: functional; details: Homo sapiens
# [6] = test system: U-251; test: In vitro growth inhibition against CNS cancer U251 cell line was reported.; assay type: functional; details: Homo sapiens
# [7] = test system: SF-268; test: In vitro total growth inhibition against CNS cancer SF-268 cell lines was reported.; assay type: functional; details: Homo sapiens, read-out: Log TGI (converted)
# [8] = test system: KM12; test: In vitro growth inhibition against colon cancer KM12 cell line was reported.; assay type: functional; details: Homo sapiens
# [9] = test system: Tumor Cell line; test: In vitro total growth inhibition for 50 cell lines was reported as log of molar concentration; assay type: functional, Homo sapiens
# [10] = test system: K562; test: In vitro growth inhibition against leukemia K-562 cell line was reported.; assay type: functional; details: Homo sapiens
# [11] = test system: K562; test: In vitro total growth inhibition against leukemia K-562 cell lines was reported.; assay type: functional; details: Homo sapiens, read-out: Log TGI (converted)
# [12] = test system: SK-MEL-5; test: In vitro growth inhibition against melanoma SK-MEL-5 cell line was reported.; assay type: functional; details: Homo sapiens
# [13] = test system: HOP-62; test: Log of molar concentration leading to 50% cell death against non-small-cell lung cancer HOP-62 cell line was reported; assay type: functional; details: Homo sapiens, read-out: Log LC50 (the source's name) (converted)
# [14] = test system: HOP-92; test: Log of molar concentration leading to 50% cell death against non-small-cell lung cancer HOP-92 cell line was reported; assay type: functional; details: Homo sapiens, read-out: Log LC50 (the source's name) (converted)
# [15] = test system: NCI-H226; test: Log of molar concentration leading to 50% cell death against non-small-cell lung cancer NCI-H226 cell line was reported; assay type: functional; details: Homo sapiens, read-out: Log LC50 (the source's name) (converted)
# [16] = test system: NCI-H23; test: Log of molar concentration leading to 50% cell death against non-small-cell lung cancer NCI-H23 cell line was reported; assay type: functional; details: Homo sapiens, read-out: Log LC50 (the source's name) (converted)
# [17] = test system: OVCAR-3; test: In vitro total growth inhibition against ovarian cancer OVCAR-3 cell lines was reported.; assay type: functional; details: Homo sapiens, read-out: Log TGI (converted)
# [18] = test system: OVCAR-5; test: In vitro total growth inhibition against ovarian cancer OVCAR-5 cell lines was reported.; assay type: functional; details: Homo sapiens, read-out: Log TGI (converted)
# [19] = test system: SN12C; test: In vitro growth inhibition against renal cancer SN12C cell line was reported.; assay type: functional; details: Homo sapiens
# [20] = test system: SN12C; test: In vitro total growth inhibition against renal cancer SN12C cell lines was reported.; assay type: functional; details: Homo sapiens, read-out: Log TGI (converted)
# [21] = test system: TK-10; test: In vitro growth inhibition against renal cancer TK-10 cell line was reported.; assay type: functional; details: Homo sapiens
# [22] = test system: UO-31; test: In vitro growth inhibition against renal cancer UO-31 cell line was reported.; assay type: functional; details: Homo sapiens
# [23] = test system: MOLT-4; test: Log of molar concentration leading to 50% cell death against leukemia MOLT-4 cell line was reported; assay type: functional; details: Homo sapiens, read-out: Log LC50 (the source's name) (converted)
# [24] = test system: HCT-15; test: Log of molar concentration leading to 50% cell death against colon cancer HCT-15 cell line was reported; assay type: functional; details: Homo sapiens, read-out: Log LC50 (the source's name) (converted)
# [25] = test system: HT-29; test: Log of molar concentration leading to 50% cell death against colon cancer HT-29 cell line was reported; assay type: functional; details: Homo sapiens, read-out: Log LC50 (the source's name) (converted)
# [26] = test system: BT-549; test: Log of molar concentration leading to 50% cell death against breast cancer BT 549 cell line was reported; assay type: functional; details: Homo sapiens, read-out: Log LC50 (the source's name) (converted)
# [27] = test system: MDA-N; test: Log of molar concentration leading to 50% cell death against breast cancer MDA-Ncell line was reported; assay type: functional; details: Homo sapiens, read-out: Log LC50 (the source's name) (converted)
# [28] = test system: NCI/ADR-RES; test: Log of molar concentration leading to 50% cell death against breast cancer NCI/ADR-RES cell line was reported; assay type: functional; details: Homo sapiens, read-out: Log LC50 (the source's name) (converted)
# [29] = test system: T47D; test: Log of molar concentration leading to 50% cell death against breast cancer […] cell line was reported; assay type: functional; details: Homo sapiens, read-out: Log LC50 (the source's name) (converted)
# [30] = test system: SK-MEL-28; test: In vitro total growth inhibition against melanoma SK-MEL-28 cell lines was reported.; assay type: functional; details: Homo sapiens, read-out: Log TGI (converted)
# [31] = test system: SK-MEL-5; test: Log of molar concentration leading to 50% cell death against melanoma SK-MEL-5 cell line was reported; assay type: functional; details: Homo sapiens, read-out: Log LC50 (the source's name) (converted)
# [32] = test system: IGROV-1; test: Log of molar concentration leading to 50% cell death against ovarian cancer IGROV1 cell line was reported; assay type: functional; details: Homo sapiens, read-out: Log LC50 (the source's name) (converted)
# [33] = test system: HOP-92; test: In vitro growth inhibition against non-small-cell lung cancer HOP-92 cell line was reported.; assay type: functional; details: Homo sapiens
# [34] = test system: NCI-H46; test: In vitro growth inhibition against non-small-cell lung cancer […] cell line was reported.; assay type: functional; details: Homo sapiens
# [35] = test system: NCI-H23; test: In vitro growth inhibition against non-small-cell lung cancer NCI-H23 cell line was reported.; assay type: functional; details: Homo sapiens
# [36] = test system: 786-0; test: Log of molar concentration leading to 50% cell death against renal cancer […] cell line was reported; assay type: functional; details: Homo sapiens, read-out: Log LC50 (the source's name) (converted)
# [37] = test system: A498; test: Log of molar concentration leading to 50% cell death against renal cancer A498 cell line was reported; assay type: functional; details: Homo sapiens, read-out: Log LC50 (the source's name) (converted)
# [38] = test system: CAKI-1; test: Log of molar concentration leading to 50% cell death against renal cancer CAKI-1 cell line was reported; assay type: functional; details: Homo sapiens, read-out: Log LC50 (the source's name) (converted)
# [39] = test system: SN12C; test: Log of molar concentration leading to 50% cell death against renal cancer SN12C cell line was reported; assay type: functional; details: Homo sapiens, read-out: Log LC50 (the source's name) (converted)
# [40] = test system: TK-10; test: Log of molar concentration leading to 50% cell death against renal cancer TK-10 cell line was reported; assay type: functional; details: Homo sapiens, read-out: Log LC50 (the source's name) (converted)
# [41] = test system: UO-31; test: Log of molar concentration leading to 50% cell death against renal cancer UO-31 cell line was reported; assay type: functional; details: Homo sapiens, read-out: Log LC50 (the source's name) (converted)
# [42] = test system: ACHN; test: In vitro growth inhibition against renal cancer ACHN cell line was reported.; assay type: functional; details: Homo sapiens
# [43] = test system: COLO 205; test: In vitro growth inhibition against colon cancer COLO 205 cell line was reported.; assay type: functional; details: Homo sapiens
# [44] = test system: HCC 2998; test: Log of molar concentration leading to 50% cell death against colon cancer HCC2998 cell line was reported; assay type: functional; details: Homo sapiens, read-out: Log LC50 (the source's name) (converted)
# [45] = test system: HOP-92; test: In vitro total growth inhibition against non-small-cell lung cancer HOP-92 cell lines was reported.; details: Homo sapiens, read-out: Log TGI (converted)
smiles,measurement,setting,value
O=C(Nc1cccc2nsnc12)c1cc2c(cc1Cl)Sc1nccn1S2(=O)=O,TGI,[1],32.4 µM
same,TGI,[2],24.5 µM
same,CC50,[3],50.1 µM
same,TGI,[4],24.5 µM
same,GI50,[5],3.89 µM
same,GI50,[6],4.57 µM
same,TGI,[7],16.2 µM
same,GI50,[8],2.04 µM
same,Log GTI,[9],-4.31
same,GI50,[10],4.07 µM
same,TGI,[11],20 µM
same,GI50,[12],15.8 µM
same,CC50,[13],8.71 µM
same,CC50,[14],95.5 µM
same,CC50,[15],58.9 µM
same,CC50,[16],55 µM
same,TGI,[17],3.47 µM
same,TGI,[18],83.2 µM
same,GI50,[19],15.1 µM
same,TGI,[20],28.8 µM
same,GI50,[21],10.5 µM
same,GI50,[22],2.09 µM
same,CC50,[23],83.2 µM
same,CC50,[24],72.4 µM
same,CC50,[25],28.8 µM
same,CC50,[26],85.1 µM
same,CC50,[27],56.2 µM
same,CC50,[28],83.2 µM
same,CC50,[29],7.76 µM
same,TGI,[30],6.76 µM
same,CC50,[31],72.4 µM
same,CC50,[32],79.4 µM
same,GI50,[33],5.89 µM
same,GI50,[34],2.04 µM
same,GI50,[35],11.7 µM
same,CC50,[36],55 µM
same,CC50,[37],63.1 µM
same,CC50,[38],51.3 µM
same,CC50,[39],56.2 µM
same,CC50,[40],50.1 µM
same,CC50,[41],50.1 µM
same,GI50,[42],12.6 µM
same,GI50,[43],17.4 µM
same,CC50,[44],55 µM
same,TGI,[45],25.7 µM
